Tests used:
Type in all cases: in vivo
beet = test: Test Example 5: effect on crop by foliage application, plastic box (symbol f); conditions: 320 g/ha, 3 weeks after application
Outline: (§1)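 Sterilized diluvial soil, plastic box (21 × 13 × 7 cm); spot sowing, ~1.5 cm soil cover; greenhouse 25–30° C.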

soybean [1] = test: Test Example 4: effect on crop by soil treatment (symbol d); conditions: for d (soybean) effect on crop grade: application herbicide amount 320 g/ha; for d: soybean, effect grade on crop: 320 g/ha
Outline: (§2)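 Sterilized diluvial soil, spot sowing, ~1.5 cm soil cover; greenhouse 25–30° C.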

rapeseed = test: Test Example 4: effect on crop by soil treatment (symbol g); conditions: for g (rapeseed) effect on crop grade: application herbicide amount 320 g/ha; for g: rapeseed, effect grade on crop: 320 g/ha
Outline: as §2

wheat [2] = test: Test Example 5: effect on crop by foliage application, plastic box (symbol e); conditions: 320 g/ha, 3 weeks after application
Outline: as §1

[3] = system: Echinochloa crus-galli var. crus-galli; test: Test Example 5: herbicidal effect by foliage application, plastic box (symbol H); conditions: 320 g/ha, 3 weeks after application
Outline: (§3)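 Greenhouse foliar test: seedlings at 14 days, grown 25° C. to 30° C. in sterilized diluvial soil; compound applied as an aqueous dilution of an emulsion; response read 3 weeks after spraying.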

Digitaria ciliaris = test: Test Example 4: herbicidal effect by soil treatment (symbol F); conditions: for F (Digitaria ciliaris) herbicidal effect grade: application herbicide amount 320 g/ha; for F: Digitaria ciliaris, herbicidal effect grade: 320 g/ha
Outline: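 Seeds were sown in sterilized diluvial soil, covered with about 1.5 cm of soil, and the soil surface was sprayed with a water-diluted emulsion of the compound at a predetermined rate. Plants grew in a greenhouse at 25° C. to 30° C.; effects were scored visually 3 weeks after application.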

Galium spurium = test: Test Example 5: herbicidal effect by foliage application, plastic box (symbol Q); conditions: 320 g/ha, 3 weeks after application
Outline: as §3

wheat [4] = test: Test Example 4: effect on crop by soil treatment (symbol e); conditions: for e (wheat) effect on crop grade: application herbicide amount 320 g/ha; for e: wheat, effect grade on crop: 320 g/ha
Outline: as §2

Chenopodium album = test: Test Example 5: herbicidal effect by foliage application, plastic box (symbol O); conditions: 320 g/ha, 3 weeks after application
Outline: as §3

Lolium multiflorum Lam. = test: Test Example 5: herbicidal effect by foliage application, plastic box (symbol K); conditions: 320 g/ha, 3 weeks after application
Outline: as §3

Monochoria vaginalis = test: Test Example 1: herbicidal activity, application before weed generation in submerged conditions (symbol C); conditions: application herbicide amount 320 g/ha
Outline: (§4)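 Application before weed emergence: an aqueous dilution of the emulsion formulation was poured onto the surface of 4 cm-deep floodwater on the day of sowing. Effect was judged after 3 weeks (greenhouse, 25–30 °C).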

Amaranthus retroflexus = test: Test Example 5: herbicidal effect by foliage application, plastic box (symbol N); conditions: 320 g/ha, 3 weeks after application
Outline: as §3

[5] = system: directly sowed rice plant; test: Test Example 3: effect on crop by foliage application, Wagner pot (symbol b); conditions: application herbicide amount 320 g/ha
Outline: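 Alluvial soil in a 1/10000-are Wagner pot was flooded to a water depth of 0.1–0.5 cm. Echinochloa crus-galli var. crus-galli, Leptochloa chinensis, Cyperus difformis and rice were sown into it and grown in a greenhouse at 25–30 °C.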

[6] = system: Echinochloa oryzacola Vasing.; test: Test Example 1: herbicidal activity, application before weed generation in submerged conditions (symbol A); conditions: application herbicide amount 320 g/ha
Outline: as §4

Veronica persica = test: Test Example 5: herbicidal effect by foliage application, plastic box (symbol R); conditions: 320 g/ha, 3 weeks after application
Outline: as §3

soybean [7] = test: Test Example 5: effect on crop by foliage application, plastic box (symbol d); conditions: 320 g/ha, 3 weeks after application
Outline: as §1

Row | SMILES | f: beet, effect on crop grade (beet) | d (soybean) effect on crop grade (soybean [1]) | g (rapeseed) effect on crop grade (rapeseed) | e: wheat, effect on crop grade (wheat [2]) | H: Echinochloa crus-galli var. crus-galli, herbicidal effect grade [3] | F (Digitaria ciliaris) herbicidal effect grade (Digitaria ciliaris) | Q: Galium spurium, herbicidal effect grade (Galium spurium) | e (wheat) effect on crop grade (wheat [4]) | O: Chenopodium album, herbicidal effect grade (Chenopodium album) | K: Lolium multiflorum Lam., herbicidal effect grade (Lolium multiflorum Lam.) | Herbicidal effect grade, C: Monochoria vaginalis (Monochoria vaginalis) | N: Amaranthus retroflexus, herbicidal effect grade (Amaranthus retroflexus) | effect on crop b (directly sowed rice plant), grade 0-5 [5] | Herbicidal effect grade, A: Echinochloa oryzacola Vasing. [6] | R: Veronica persica, herbicidal effect grade (Veronica persica) | d: soybean, effect on crop grade (soybean [7]) | f: beet, effect on crop (criteria 0-5) (beet) | d: soybean, effect grade on crop (soybean [1]) | g: rapeseed, effect grade on crop (rapeseed) | e: wheat, effect on crop (criteria 0-5) (wheat [2]) | other results
1 | C=CCOC1=C(c2c(C)cc(C)cc2C)C(=O)C(CC(C)=NOC)C1 (stereo not shown) [1-007] | 0 (Herbicidal ratio of 5% or lower (almost no effect)) | 0 (Herbicidal ratio of 5% or lower (almost no effect)) | 0 (Herbicidal ratio of 5% or lower (almost no effect)) | 0 (Herbicidal ratio of 5% or lower (almost no effect)) | 0 (Herbicidal ratio of 5% or lower (almost no effect)) | 0 (Herbicidal ratio of 5% or lower (almost no effect)) | 0 (Herbicidal ratio of 5% or lower (almost no effect)) | 0 (Herbicidal ratio of 5% or lower (almost no effect)) | 0 (Herbicidal ratio of 5% or lower (almost no effect)) | 5 (Herbicidal ratio of 90% or more (almost completely withered)) | 0 (Herbicidal ratio of 5% or lower (almost no effect)) | 0 (Herbicidal ratio of 5% or lower (almost no effect)) | 0 (Herbicidal ratio of 5% or lower (almost no effect)) | 0 (Herbicidal ratio of 5% or lower (almost no effect)) | 0 (Herbicidal ratio of 5% or lower (almost no effect)) | 0 (Herbicidal ratio of 5% or lower (almost no effect)) |  |  |  |  | 
2 | CON=C(C)CC1CC(OS(C)(=O)=O)=C(c2c(C)cc(C)cc2C)C1=O (stereo not shown) [1-006] | 0 (Herbicidal ratio of 5% or lower (almost no effect)) | 0 (Herbicidal ratio of 5% or lower (almost no effect)) | 0 (Herbicidal ratio of 5% or lower (almost no effect)) | 3 (Herbicidal ratio of 40% or higher and lower than 70%) | 5 (Herbicidal ratio of 90% or more (almost completely withered)) | 5 (Herbicidal ratio of 90% or more (almost completely withered)) | 0 (Herbicidal ratio of 5% or lower (almost no effect)) | 0 (Herbicidal ratio of 5% or lower (almost no effect)) | 0 (Herbicidal ratio of 5% or lower (almost no effect)) | 5 (Herbicidal ratio of 90% or more (almost completely withered)) | 3 (Herbicidal ratio of 40% or higher and lower than 70%) | 3 (Herbicidal ratio of 40% or higher and lower than 70%) | 5 (Herbicidal ratio of 90% or more (almost completely withered)) | 5 (Herbicidal ratio of 90% or more (almost completely withered)) | 2 (Herbicidal ratio of 20% or higher and lower than 40%) | 4 (Herbicidal ratio of 70% or higher and lower than 90%) |  |  |  |  | 
3 | CON=C(C)CC1CC(OC(=O)C(CSC)=NOC)=C(c2c(C)cc(C)cc2C)C1=O (stereo not shown) [1-098] |  |  |  |  |  |  |  |  |  |  | 4 (Herbicidal ratio of 70% or higher and lower than 90%) |  | 5 (Herbicidal ratio of 90% or more (almost completely withered)) | 5 (Herbicidal ratio of 90% or more (almost completely withered)) |  |  | 1 (Herbicidal ratio of 5% or higher and lower than 20%) | 2 (Herbicidal ratio of 20% or higher and lower than 40%) | 5 (Herbicidal ratio of 90% or more (almost completely withered)) | 5 (Herbicidal ratio of 90% or more (almost completely withered)) | H: Echinochloa crus-galli var. crus-galli, herbicidal effect (criteria 0-5) [3]: 5 (Herbicidal ratio of 90% or more (almost completely withered)); F: Digitaria ciliaris, herbicidal effect grade (Digitaria ciliaris): 5 (Herbicidal ratio of 90% or more (almost completely withered)); Q: Galium spurium, herbicidal effect (criteria 0-5) (Galium spurium): 0 (Herbicidal ratio of 5% or lower (almost no effect)); e: wheat, effect grade on crop (wheat [4]): 3 (Herbicidal ratio of 40% or higher and lower than 70%); O: Chenopodium album, herbicidal effect (criteria 0-5) (Chenopodium album): 0 (Herbicidal ratio of 5% or lower (almost no effect)); K: Lolium multiflorum Lam., herbicidal effect (criteria 0-5) (Lolium multiflorum Lam.): 5 (Herbicidal ratio of 90% or more (almost completely withered)); N: Amaranthus retroflexus, herbicidal effect (criteria 0-5) (Amaranthus retroflexus): 0 (Herbicidal ratio of 5% or lower (almost no effect)); R: Veronica persica, herbicidal effect (criteria 0-5) (Veronica persica): 3 (Herbicidal ratio of 40% or higher and lower than 70%); d: soybean, effect on crop (criteria 0-5) (soybean [7]): 3 (Herbicidal ratio of 40% or higher and lower than 70%)
4 | CC(CC1CC(O)=C(c2c(C)cc(C)cc2C)C1=O)=NOCc1ccccc1[N+](=O)[O-] (stereo not shown) [1-119] |  |  |  |  |  |  |  |  |  |  | 0 (Herbicidal ratio of 5% or lower (almost no effect)) |  | 5 (Herbicidal ratio of 90% or more (almost completely withered)) | 1 (Herbicidal ratio of 5% or higher and lower than 20%) |  |  | 0 (Herbicidal ratio of 5% or lower (almost no effect)) | 0 (Herbicidal ratio of 5% or lower (almost no effect)) | 3 (Herbicidal ratio of 40% or higher and lower than 70%) | 4 (Herbicidal ratio of 70% or higher and lower than 90%) | H: Echinochloa crus-galli var. crus-galli, herbicidal effect (criteria 0-5) [3]: 5 (Herbicidal ratio of 90% or more (almost completely withered)); F: Digitaria ciliaris, herbicidal effect grade (Digitaria ciliaris): 4 (Herbicidal ratio of 70% or higher and lower than 90%); Q: Galium spurium, herbicidal effect (criteria 0-5) (Galium spurium): 0 (Herbicidal ratio of 5% or lower (almost no effect)); e: wheat, effect grade on crop (wheat [4]): 0 (Herbicidal ratio of 5% or lower (almost no effect)); O: Chenopodium album, herbicidal effect (criteria 0-5) (Chenopodium album): 3 (Herbicidal ratio of 40% or higher and lower than 70%); K: Lolium multiflorum Lam., herbicidal effect (criteria 0-5) (Lolium multiflorum Lam.): 5 (Herbicidal ratio of 90% or more (almost completely withered)); N: Amaranthus retroflexus, herbicidal effect (criteria 0-5) (Amaranthus retroflexus): 0 (Herbicidal ratio of 5% or lower (almost no effect)); R: Veronica persica, herbicidal effect (criteria 0-5) (Veronica persica): 3 (Herbicidal ratio of 40% or higher and lower than 70%); d: soybean, effect on crop (criteria 0-5) (soybean [7]): 0 (Herbicidal ratio of 5% or lower (almost no effect))

— patent US11000033B2, “Ketone or oxime compound, and herbicide” (NISSAN CHEMICAL CORPORATION, priority 2014, dated 2021)
